The target of data set [1] is alpha1 adrenergic receptor. Kind of data set: Receptor profile: affinity (Ki) at α1. It is filed as binding. The settings on record: other noteworthy target; data on file.
Data set [2] concerns the target alpha2 adrenergic receptor. The settings on record: read-out: affinity (Ki) α2; other noteworthy target; literature sources; cited from earlier work.
Data set [3] has as its target T1, 5-HT2C (Homo sapiens, UniProt P28335).
T1 sequence (P28335 33-458): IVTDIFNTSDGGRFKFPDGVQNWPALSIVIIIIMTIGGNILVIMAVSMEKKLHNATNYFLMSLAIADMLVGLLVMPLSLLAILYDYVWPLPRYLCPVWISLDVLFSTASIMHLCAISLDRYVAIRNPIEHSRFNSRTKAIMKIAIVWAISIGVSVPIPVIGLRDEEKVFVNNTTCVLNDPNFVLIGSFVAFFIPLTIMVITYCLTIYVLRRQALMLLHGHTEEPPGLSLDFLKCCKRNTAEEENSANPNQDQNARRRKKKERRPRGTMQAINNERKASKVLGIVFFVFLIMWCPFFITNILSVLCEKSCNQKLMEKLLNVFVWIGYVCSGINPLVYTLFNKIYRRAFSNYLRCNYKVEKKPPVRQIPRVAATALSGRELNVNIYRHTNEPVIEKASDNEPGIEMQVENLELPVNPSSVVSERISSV
The following applies: literature sources; read-out: affinity (Ki) 5-HT2C; cited from earlier work.

Data set [4] deals with T2, 5-HT3 (Homo sapiens, UniProt P46098).
T2 sequence (P46098 24-478): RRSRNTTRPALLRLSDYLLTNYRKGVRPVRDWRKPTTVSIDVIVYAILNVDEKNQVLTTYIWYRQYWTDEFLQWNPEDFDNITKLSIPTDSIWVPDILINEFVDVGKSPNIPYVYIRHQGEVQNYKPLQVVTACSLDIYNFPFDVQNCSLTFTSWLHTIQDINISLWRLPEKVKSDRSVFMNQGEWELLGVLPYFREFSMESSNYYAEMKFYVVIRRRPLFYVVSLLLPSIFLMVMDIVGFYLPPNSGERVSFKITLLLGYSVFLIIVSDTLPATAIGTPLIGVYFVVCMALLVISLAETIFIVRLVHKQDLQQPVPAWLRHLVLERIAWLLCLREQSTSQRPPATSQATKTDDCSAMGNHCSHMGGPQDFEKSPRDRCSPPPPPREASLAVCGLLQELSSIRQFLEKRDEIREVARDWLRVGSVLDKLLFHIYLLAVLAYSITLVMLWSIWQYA
The settings on record: other noteworthy target; literature sources; read-out: affinity (Ki) 5-HT3; cited from earlier work.

Data set [5] addresses T3, D4 (Homo sapiens, UniProt P21917).
T3 sequence (P21917 1-419): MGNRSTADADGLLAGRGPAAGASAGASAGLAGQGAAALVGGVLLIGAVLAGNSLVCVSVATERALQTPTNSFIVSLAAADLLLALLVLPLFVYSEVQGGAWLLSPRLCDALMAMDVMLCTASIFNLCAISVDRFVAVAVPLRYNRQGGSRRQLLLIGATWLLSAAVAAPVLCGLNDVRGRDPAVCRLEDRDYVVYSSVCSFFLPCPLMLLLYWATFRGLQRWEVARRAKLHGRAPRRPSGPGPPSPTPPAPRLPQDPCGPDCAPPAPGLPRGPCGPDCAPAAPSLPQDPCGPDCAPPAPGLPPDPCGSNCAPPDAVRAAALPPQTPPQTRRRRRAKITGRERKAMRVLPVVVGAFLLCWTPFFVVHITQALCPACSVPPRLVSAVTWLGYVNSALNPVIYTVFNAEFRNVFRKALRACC
The settings on record: other noteworthy target; literature sources; read-out: affinity (Ki) D4; cited from earlier work.

The target of data set [6] is norepinephrine transporter (Homo sapiens, UniProt P23975). Kind of data set: Receptor profile: affinity (Ki) at NET. It counts as binding. The settings on record: data on file.
The target of data set [7] is serotonin transporter (Homo sapiens, UniProt P31645). Kind of data set: Receptor profile: affinity (Ki) at SERT. It counts as binding. The following applies: data on file.
Data set [8] addresses T1, 5-HT2C. Kind of data set: Receptor profile: affinity (Ki) at 5-HT2C. It counts as binding. The settings on record: data on file.
For data set [9], the target named is 5-HT2A (Homo sapiens, UniProt P28223). Kind of data set: Receptor profile: affinity (Ki) at 5-HT2A. It counts as binding. The settings on record: data on file.
Data set [10] deals with dopamine transporter (Homo sapiens, UniProt Q01959). Kind of data set: Receptor profile: affinity (Ki) at DAT. It counts as binding. The settings on record: data on file.
The subject of data set [11] is patients with MDD. The settings on record: Baldwin et al (2013); printed as x to 1; cited from earlier work.

pKi: −log10 of the molar value. Where two headings read alike, the source gives them in different places.

As a reminder, the pKi is −log10 of the Ki, conventionally taken in molar units.

dopamine transporter, sequence (Q01959 whole entry): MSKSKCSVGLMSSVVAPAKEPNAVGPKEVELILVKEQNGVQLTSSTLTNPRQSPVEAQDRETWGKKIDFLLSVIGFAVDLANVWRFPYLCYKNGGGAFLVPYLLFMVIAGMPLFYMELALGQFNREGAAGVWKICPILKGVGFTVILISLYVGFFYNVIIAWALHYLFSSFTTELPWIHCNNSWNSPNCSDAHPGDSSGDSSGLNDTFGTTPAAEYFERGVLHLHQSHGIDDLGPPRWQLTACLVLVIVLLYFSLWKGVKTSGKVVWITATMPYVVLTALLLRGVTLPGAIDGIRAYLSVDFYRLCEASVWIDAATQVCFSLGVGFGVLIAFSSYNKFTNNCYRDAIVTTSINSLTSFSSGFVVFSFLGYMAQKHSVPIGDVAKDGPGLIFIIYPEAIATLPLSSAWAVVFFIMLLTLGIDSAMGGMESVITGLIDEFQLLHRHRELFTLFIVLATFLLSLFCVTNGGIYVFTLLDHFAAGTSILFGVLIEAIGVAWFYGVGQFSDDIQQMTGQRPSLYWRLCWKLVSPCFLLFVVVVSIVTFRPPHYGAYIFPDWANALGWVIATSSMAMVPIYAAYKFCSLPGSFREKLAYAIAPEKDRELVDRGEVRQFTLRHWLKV
norepinephrine transporter, sequence (P23975 whole entry, species assumed): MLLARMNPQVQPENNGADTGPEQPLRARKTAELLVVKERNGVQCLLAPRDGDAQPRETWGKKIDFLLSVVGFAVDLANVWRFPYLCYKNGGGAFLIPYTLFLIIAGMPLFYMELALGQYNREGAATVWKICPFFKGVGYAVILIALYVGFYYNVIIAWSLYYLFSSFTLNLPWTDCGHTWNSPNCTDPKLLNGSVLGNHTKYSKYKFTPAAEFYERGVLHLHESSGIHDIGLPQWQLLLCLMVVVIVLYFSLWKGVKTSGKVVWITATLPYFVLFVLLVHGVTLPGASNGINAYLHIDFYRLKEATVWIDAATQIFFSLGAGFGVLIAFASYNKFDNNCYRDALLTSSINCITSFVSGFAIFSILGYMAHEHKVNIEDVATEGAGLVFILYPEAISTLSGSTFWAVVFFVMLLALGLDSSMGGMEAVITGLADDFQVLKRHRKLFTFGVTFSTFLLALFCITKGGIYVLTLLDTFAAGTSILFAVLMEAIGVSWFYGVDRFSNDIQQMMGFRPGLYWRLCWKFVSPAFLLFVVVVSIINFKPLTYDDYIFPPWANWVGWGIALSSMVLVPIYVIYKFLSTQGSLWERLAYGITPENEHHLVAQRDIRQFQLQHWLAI
serotonin transporter, sequence (P31645 whole entry): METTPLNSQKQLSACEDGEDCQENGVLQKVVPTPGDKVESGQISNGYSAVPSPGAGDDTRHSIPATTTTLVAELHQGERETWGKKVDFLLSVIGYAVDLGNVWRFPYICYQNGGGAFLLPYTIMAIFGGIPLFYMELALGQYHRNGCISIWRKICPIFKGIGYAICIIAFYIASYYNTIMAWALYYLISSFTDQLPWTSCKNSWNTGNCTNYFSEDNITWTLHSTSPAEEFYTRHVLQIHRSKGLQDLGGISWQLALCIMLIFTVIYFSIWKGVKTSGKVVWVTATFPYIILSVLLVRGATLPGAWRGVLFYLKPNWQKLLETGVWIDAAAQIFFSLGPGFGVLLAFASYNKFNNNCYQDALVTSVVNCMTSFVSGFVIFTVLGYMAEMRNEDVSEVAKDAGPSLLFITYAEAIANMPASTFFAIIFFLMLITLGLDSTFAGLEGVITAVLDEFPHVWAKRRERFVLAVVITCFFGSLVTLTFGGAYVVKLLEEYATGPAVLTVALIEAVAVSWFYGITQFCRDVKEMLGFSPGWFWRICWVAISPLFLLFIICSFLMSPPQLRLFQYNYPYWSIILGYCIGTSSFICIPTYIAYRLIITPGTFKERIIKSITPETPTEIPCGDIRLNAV
5-HT2A, sequence (P28223 whole entry, species assumed): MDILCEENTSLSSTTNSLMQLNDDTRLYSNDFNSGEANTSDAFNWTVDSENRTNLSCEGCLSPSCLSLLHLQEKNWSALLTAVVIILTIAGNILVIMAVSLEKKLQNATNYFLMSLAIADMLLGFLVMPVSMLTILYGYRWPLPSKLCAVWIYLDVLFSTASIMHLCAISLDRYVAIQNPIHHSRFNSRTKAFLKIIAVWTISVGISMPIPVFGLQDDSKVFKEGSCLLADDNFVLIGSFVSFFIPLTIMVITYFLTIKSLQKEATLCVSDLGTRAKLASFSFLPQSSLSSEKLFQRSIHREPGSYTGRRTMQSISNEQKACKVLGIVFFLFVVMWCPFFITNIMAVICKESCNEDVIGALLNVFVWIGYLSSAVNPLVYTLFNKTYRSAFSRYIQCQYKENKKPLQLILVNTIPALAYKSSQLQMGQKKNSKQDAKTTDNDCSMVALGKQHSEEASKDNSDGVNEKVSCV

`O=C(c1ccc(F)cc1)C1CCN(CCn2c(=O)[nH]c3ccccc3c2=O)CC1` [KET, ketanserin]: the pKi in [1] was 7.70 to 7.82.
In the case of `CN1CCN2c3ncccc3Cc3ccccc3C2C1` (centres unmarked) [MIRT, mirtazapine], the results for the pKi in data set [2], in data set [3] and in data set [4] were 7.70 to 7.82, 7.40 and 8.00, respectively.
As to `NC(=O)C1(N2CCCCC2)CCN(CCCC(=O)c2ccc(F)cc2)CC1` [PIP, pipamperone], the pKi was 7.46 in data set [2], 6.92 in data set [3] and 8.30 in data set [5].
Consider `N#Cc1c[nH]c2c(C(=O)N3CCN(CCc4ccc(F)cc4)CC3)cccc12` [PRUV, pruvanserin], for which the pKi in [6] was < 6.00; in [7], < 6.00; in data set [8], < 6.00; in [9], 9.15; in data set [10], < 6.00.
On to `Cc1nc2sccn2c(=O)c1CCN1CCC(=C(c2ccc(F)cc2)c2ccc(F)cc2)CC1` [RIT, ritanserin], for which the pKi in [6] was < 6.00; in data set [7], < 6.00; in [8] it was 8.52; in data set [10], < 6.00.
Turning to `COc1ccc(C(CN(C)C)C2(O)CCCCC2)cc1` (centres unmarked) [venlafaxine], the “odds ratio (drug to placebo) for sexual dysfunction” value in [11] is recorded as 24.42.
